Here are results for 21 compounds from patent publication US11192893B2, “Pyrazoloquinazolinone antitumor agents” (The Rockefeller University, priority 2017, dated 2021).

In general, IC50 refers to the concentration that inhibits the measured activity by half.

For assay [1], the target named is human cytoplasmic dynein 2 (Homo sapiens (Human), UniProt Q8NCM8). Put plainly: microtubule gliding assay with GFP-dynein 2. The conditions noted are these: dynein 2-driven microtubule gliding; test compounds at 20 pM (so in the source); 1 mM MgATP, 0.05 mg/mL casein, 2% DMSO; solvent control 126 ± 17. It counts as biochemical. Here is the method:
Compounds were tested employing a microtubule gliding assay, a standard biochemical assay for motor proteins. […] We purified an N-terminally GFP-tagged motor-domain construct of dynein 2 using an insect cell expression system [Schmidt et al., Nature. 2015; 518(7539):435-8]. The GFP tag in this construct allowed immobilization on passivated glass coverslips used in microtubule gliding assays. GFP-dynein 2, in the presence of ATP (1 mM), moved microtubules with a velocity of 128±14 nm/s. The mean velocity of dynein 2-driven microtubule gliding in the presence of control solvent (2% DMSO) and test compounds at 20 pM were compared. All motility assays were run at 1 mM MgATP, 0.05 mg/mL casein, and 2% DMSO. Representative examples of compounds of the invention provided the results shown as “Gliding velocity in nm/s” in Table 1. For some compounds, dose-dependent analyses were performed, and the results are shown as “IC50 in μM” in Table 1.
Microtubule surface gliding assay. Cytoplasmic dynein was purified from bovine brains as described by Bingham et al. [Methods Enzymol. 298, 171 (1998)]. K560, a 560-amino acid N-terminal fragment of human conventional kinesin (kinesin-1) with a C-terminal His-tag, was expressed in bacteria and purifed as described by Woehlke et al., [Cell 90, 207 (1997)]. Motility assays were performed on a Zeiss Axiovert 200M wide-field microscope equipped with a Zeiss 100×/1.45 NA α-Plan-Fluar objective. Data were captured with an EM-CCD camera (iXon DU-897, Andor Technology) with a 0.3-second exposure time and frame rate of 0.5 second^−1. Microtubule gliding assays were performed as described by Kapoor and Mitchison [Proc. Natl. Acad. Sci. U.S.A 96, 9106 (1999)] with some modifications. An approximately 6-μL flow chamber was filled with motor protein (100 μg/mL dynein or 50 μg/mL K560) in motor dilution buffer (80 mM Pipes, 1 mM EGTA, 2 mM MgCl2, 2 mM DTT, 50 μM ATP, pH 6.8 with KOH). After a 2-minute incubation, excess protein was washed out with 20 μL of PEM80 buffer (80 mM Pipes, 1 mM EGTA, 2 mM MgCl2, pH 6.8 with KOH) and the surface was blocked against non-specific microtubule binding by filling the chamber with blocking protein (0.5 mg/mL α-casein for dynein experiments and 1 mg/mL BSA for K560 experiments) in motor dilution buffer. After 2 minutes the chamber was perfused with 18 μL of reaction mix (PEM80, 40 mM KC 1, blocking protein [1 mg/mL α-casein for dynein experiments; 1 mg/mL BSA for K560 experiments], 2 mM MgATP, 20 μM taxol, 0.1 μM rhodamine-labeled microtubules, oxygen depletion system [4 mM DTT, 2 mM glucose, 40 μg/mL glucose oxidase, 35 μg/mL catalase], 2.5% DMSO, and test compounds as appropriate). The flow chamber was then sealed with valap. After allowing the microtubules to bind to the surface for 5 minutes, the gliding microtubules were visualized by time-lapse fluorescence microscopy. Velocities were measured by kymography using Metamorph software (Molecular Devices), and the velocity for each microtubule was determined from the total distance during the time observed.
For washout experiments, the chamber was left unsealed after the initial reaction mix containing inhibitor was added. Microtubules were allowed to bind to the surface for 5 minutes, and then a time-lapse movie was acquired. The inhibitor was then washed out of the chamber by flowing in 20 μL of fresh reaction mix (PEM80, 40 mM KCl, 1 mg/mL α-casein, 2 mM MgATP, 20 μM taxol, oxygen depletion system, and 2.5% DMSO) without additional microtubules or inhibitor. The chamber was sealed, and additional time-lapse movies were acquired.

Assay [2] has as its system Hedgehog pathway activity. Put plainly: Shh-Light luciferase reporter assay of Hedgehog pathway activity (Shh-Light2 cells, SAG-stimulated). It counts as cell-based. The conditions noted are these: for activity at 2 µM: 2 μM compound, read-out: SHH-light % residual @ 2 μM; for activity at 2 µM / activity at 20 µM: SAG 500 nM; for activity at 20 µM: 20 μM compound, read-out: SHH-light % residual @ 20 μM. Here is the method:
To examine the inhibition of dynein 2 in cell-based assays, an established luciferase reporter-based cellular assay of Hedgehog pathway activity was employed [Taipale et al., Nature. 2000; 406(6799): 1005-9]. Signaling in this pathway depends on the function of dynein 2. In this setting, expression of luciferase driven by Hedgehog pathway activity was inhibited by compound 5 with an IC50 value of 0.9±0.5 μM. […] The potencies of these compounds in this cell-based assay match the rank-order of dynein 2 inhibition in vitro. In these assays, Hedgehog pathway activity was stimulated using the Synthetic Agonist of Smoothened (SAG). This compound competes with many Hedgehog pathway inhibitors for binding to Smoothened, a key node in the signaling pathway.
SHH-Light Assay (Steinman et al. eLife 2017; 6:e25174.)
NIH-3T3 cells stably expressing a luciferase reporter downstream of a Gli binding site (Shh-Light2 cells, RRID: CVCL_2721) were maintained in DMEM with 10% bovine calf serum (BCS). Cells were seeded at a density of 30,000 cells/well in 96-well tissue culture-treated plates (Corning, cat #353072) in 100 μL in DMEM+10% BCS, and incubated for 48 hr (Taipale et al., 2000). Wells were washed briefly with PBS. Next […] of low serum media (DMEM+0.5% BCS) containing smoothened agonist (SAG, 500 nM), and either solvent control (0.2% DMSO) or test compound (serial three-fold dilutions of each inhibitor starting from 20 μM) were added to the wells. After 28-32 hr of inhibitor treatment, cells were washed with 50 μL PBS and lysed for >30 min in 30 μL Passive Lysis Buffer (Promega Dual Luciferase kit, cat E1910). 5 uL of each lysate was transferred to white, solid-bottom 96-well plates (Greiner, cat #655075), followed by rapid addition (within 30 s) of 30 μL of Luciferase Assay Reagent using a multichannel pipette. Luminescence for each condition was read using a Synergy Neo plate reader (5 s integration time per well). Cell line identity was confirmed by measurement of the degree of response to Hedgehog pathway stimulation by the synthetic agonist SAG and using previously published values from our groups and others as references (Firestone et al., 2012; Hyman et al., 2009).
Background: A reporter such as luciferase makes a cellular process visible.

Chain of human cytoplasmic dynein 2 (Q8NCM8 1091-4307 limits assumed): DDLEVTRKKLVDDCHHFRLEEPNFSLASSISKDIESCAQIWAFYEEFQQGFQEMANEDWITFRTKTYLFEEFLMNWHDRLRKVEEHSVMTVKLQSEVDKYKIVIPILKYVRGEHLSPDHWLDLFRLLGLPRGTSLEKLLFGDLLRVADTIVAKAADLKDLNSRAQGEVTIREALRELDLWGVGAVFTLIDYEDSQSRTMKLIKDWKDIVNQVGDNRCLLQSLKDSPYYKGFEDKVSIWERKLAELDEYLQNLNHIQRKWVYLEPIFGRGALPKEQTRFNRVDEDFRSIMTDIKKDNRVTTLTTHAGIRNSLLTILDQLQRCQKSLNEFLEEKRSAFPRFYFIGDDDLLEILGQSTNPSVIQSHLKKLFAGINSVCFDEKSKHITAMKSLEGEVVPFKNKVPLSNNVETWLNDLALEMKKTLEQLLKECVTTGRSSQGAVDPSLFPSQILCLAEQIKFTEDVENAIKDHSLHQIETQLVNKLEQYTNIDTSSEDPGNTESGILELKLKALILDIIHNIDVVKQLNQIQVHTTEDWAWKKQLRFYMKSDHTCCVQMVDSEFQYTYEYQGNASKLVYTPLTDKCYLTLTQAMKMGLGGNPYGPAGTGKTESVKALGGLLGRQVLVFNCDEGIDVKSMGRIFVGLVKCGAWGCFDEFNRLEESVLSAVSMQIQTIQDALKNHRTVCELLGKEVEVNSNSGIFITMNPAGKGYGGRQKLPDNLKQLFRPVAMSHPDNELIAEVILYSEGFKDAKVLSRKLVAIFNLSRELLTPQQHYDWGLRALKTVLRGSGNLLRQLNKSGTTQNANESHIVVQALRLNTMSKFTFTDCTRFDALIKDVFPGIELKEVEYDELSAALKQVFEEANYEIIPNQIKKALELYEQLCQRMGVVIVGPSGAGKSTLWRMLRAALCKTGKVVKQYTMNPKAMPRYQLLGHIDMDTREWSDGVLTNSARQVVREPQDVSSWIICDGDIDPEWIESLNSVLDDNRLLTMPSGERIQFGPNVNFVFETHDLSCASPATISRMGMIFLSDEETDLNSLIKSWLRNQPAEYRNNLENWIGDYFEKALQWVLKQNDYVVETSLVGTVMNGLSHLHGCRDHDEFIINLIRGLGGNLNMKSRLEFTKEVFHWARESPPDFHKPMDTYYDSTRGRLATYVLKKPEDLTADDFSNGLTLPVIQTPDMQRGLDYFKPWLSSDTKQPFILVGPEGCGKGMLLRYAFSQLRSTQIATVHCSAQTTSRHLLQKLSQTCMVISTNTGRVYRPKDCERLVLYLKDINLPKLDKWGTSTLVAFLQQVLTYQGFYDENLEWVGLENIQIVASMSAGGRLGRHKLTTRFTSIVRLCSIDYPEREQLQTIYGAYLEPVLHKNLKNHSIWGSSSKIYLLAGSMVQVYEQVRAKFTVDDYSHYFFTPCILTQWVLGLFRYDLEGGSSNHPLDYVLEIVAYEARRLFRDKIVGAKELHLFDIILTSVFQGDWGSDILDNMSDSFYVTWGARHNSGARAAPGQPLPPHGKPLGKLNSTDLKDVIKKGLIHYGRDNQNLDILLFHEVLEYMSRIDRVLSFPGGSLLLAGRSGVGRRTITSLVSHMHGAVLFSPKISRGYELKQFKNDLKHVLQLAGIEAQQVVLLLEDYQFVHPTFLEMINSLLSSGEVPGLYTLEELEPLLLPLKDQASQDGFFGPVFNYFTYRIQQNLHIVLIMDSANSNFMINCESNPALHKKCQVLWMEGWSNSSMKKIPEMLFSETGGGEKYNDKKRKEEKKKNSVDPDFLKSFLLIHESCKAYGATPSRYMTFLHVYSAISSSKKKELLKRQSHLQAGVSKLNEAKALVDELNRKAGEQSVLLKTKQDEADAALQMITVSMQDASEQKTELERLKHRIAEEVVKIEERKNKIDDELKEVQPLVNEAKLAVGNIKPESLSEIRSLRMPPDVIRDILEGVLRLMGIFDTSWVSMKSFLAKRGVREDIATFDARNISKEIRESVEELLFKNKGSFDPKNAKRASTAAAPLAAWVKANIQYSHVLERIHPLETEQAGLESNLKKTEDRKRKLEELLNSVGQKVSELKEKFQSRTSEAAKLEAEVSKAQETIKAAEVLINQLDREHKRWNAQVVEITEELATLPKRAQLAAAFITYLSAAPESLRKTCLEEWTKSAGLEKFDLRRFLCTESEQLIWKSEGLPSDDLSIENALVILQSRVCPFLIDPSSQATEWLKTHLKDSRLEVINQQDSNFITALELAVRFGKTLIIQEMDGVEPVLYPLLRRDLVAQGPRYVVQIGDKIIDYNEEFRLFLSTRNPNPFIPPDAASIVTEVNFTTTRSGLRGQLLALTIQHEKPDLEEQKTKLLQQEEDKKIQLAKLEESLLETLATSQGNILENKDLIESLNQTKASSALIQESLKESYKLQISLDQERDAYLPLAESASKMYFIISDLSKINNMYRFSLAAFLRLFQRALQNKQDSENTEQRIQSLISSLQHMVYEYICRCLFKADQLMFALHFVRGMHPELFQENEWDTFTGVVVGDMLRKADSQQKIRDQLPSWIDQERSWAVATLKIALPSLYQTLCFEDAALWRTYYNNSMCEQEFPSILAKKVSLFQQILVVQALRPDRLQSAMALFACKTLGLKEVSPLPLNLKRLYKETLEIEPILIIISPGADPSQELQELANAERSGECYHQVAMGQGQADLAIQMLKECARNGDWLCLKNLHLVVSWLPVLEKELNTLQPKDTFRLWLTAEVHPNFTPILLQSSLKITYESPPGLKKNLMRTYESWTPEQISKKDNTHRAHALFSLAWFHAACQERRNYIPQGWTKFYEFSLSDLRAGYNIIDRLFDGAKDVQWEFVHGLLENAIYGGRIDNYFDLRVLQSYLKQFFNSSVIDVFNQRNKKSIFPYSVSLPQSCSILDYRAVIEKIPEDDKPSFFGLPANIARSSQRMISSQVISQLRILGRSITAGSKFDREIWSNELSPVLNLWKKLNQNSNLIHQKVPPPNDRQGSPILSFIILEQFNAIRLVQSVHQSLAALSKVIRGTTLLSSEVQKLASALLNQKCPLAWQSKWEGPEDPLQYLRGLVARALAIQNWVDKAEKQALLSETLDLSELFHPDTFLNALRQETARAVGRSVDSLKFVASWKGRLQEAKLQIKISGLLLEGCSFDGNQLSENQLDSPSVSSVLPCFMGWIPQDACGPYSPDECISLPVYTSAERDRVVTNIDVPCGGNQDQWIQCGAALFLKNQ

Consider `O=c1[nH]c2cc(-c3ccc(Cl)cc3Cl)nn2c2ccccc12` [Example 1, 2-(2,4-dichlorophenyl)-4H-pyrazolo[1,5-a]quinazolin-5-one], for which the Gliding velocity in assay [1] is on record as 83 ± 10 nm/s. As for `NC(=O)c1c(CC2CC2)nn2c(=O)c3ccccc3[nH]c12` [Example 53, 2-(Cyclopropylmethyl)-9-oxo-4H-pyrazolo[5,1-b]quinazoline-3-carboxamide], in assay [2], the activity at 2 µM was determined as 75.2% and the activity at 20 µM worked out at 123%.

`N#Cc1c(CC2CC2)nn2c(=O)c3ccccc3[nH]c12` [Example 54, 2-(Cyclopropylmethyl)-9-oxo-4H-pyrazolo[5,1-b]quinazoline-3-carbonitrile]: the activity at 2 µM in assay [2] was 81.7%. Same read-out and setting: then `NC(=O)c1c(-c2ccc(Cl)cc2Cl)nn2c(=O)c3cc(OCc4ccccc4)ccc3[nH]c12` [Example 55, 7-Benzyloxy-2-(2,4-dichlorophenyl)-9-oxo-4H-pyrazolo[5,1-b]quinazoline-3-carboxamide], with 62.8%. Consider `N#Cc1c(-c2ccc(Cl)cc2Cl)nn2c(=O)c3cc(OCc4ccccc4)ccc3[nH]c12` [Example 56, 7-Benzyloxy-2-(2,4-dichlorophenyl)-9-oxo-4H-pyrazolo[5,1-b]quinazoline-3-carbonitrile], for which the activity at 2 µM in assay [2] came to 49.6%.

Regarding `NC(=O)c1c(CCC(F)(F)F)nn2c(=O)c3ccccc3[nH]c12` [Example 57, 9-Oxo-2-(3,3,3-trifluoropropyl)-4H-pyrazolo[5,1-b]quinazoline-3-carboxamide], the activity at 2 µM in assay [2] is 67.9%.

For `N#Cc1c(CCC(F)(F)F)nn2c(=O)c3ccccc3[nH]c12` [Example 58, 9-Oxo-2-(3,3,3-trifluoropropyl)-4H-pyrazolo[5,1-b]quinazoline-3-carbonitrile], in assay [2], the activity at 2 µM was found to be 55.5% and the activity at 20 µM stood at 35.1%.

Turning to `N#Cc1c(C2(C(F)(F)F)CC2)nn2c(=O)c3ccccc3[nH]c12` [Example 59, 9-Oxo-2-[1-(trifluoromethyl)cyclopropyl]-4H-pyrazolo[5,1-b]quinazoline-3-carbonitrile], in assay [2], the activity at 2 µM stood at 89.3% and the activity at 20 µM worked out at 45.1%. The matching figures for `NC(=O)c1c(CCCO)nn2c(=O)c3ccccc3[nH]c12` [Example 60, 2-(3-Hydroxypropyl)-9-oxo-4H-pyrazolo[5,1-b]quinazoline-3-carboxamide]: 78.1% and 99%. `O=C(O)c1c(-c2ccc(Cl)cc2Cl)nn2c1[nH]c(=O)c1ccccc12` [Example 61, 2-(2,4-Dichlorophenyl)-5-oxo-4H-pyrazolo[1,5-a]quinazoline-3-carboxylic acid]: in assay [2], the activity at 20 µM came out at 66.7%. Still for that read-out and setting: then `NC(=O)c1c(-c2ccc(Cl)cc2Cl)nn2c1[nH]c(=O)c1ccccc12` [Example 62, 2-(2,4-Dichlorophenyl)-5-oxo-4H-pyrazolo[1,5-a]quinazoline-3-carboxamide], with 42.1%. Take `COc1ccc2c(c1)c(=O)[nH]c1c(C#N)c(C3(c4ccc(Cl)cc4)CC3)nn12` [Example 64, 2-[1-(4-Chlorophenyl)cyclopropyl]-7-methoxy-5-oxo-4H-pyrazolo[1,5-a]quinazoline-3-carbonitrile]: in assay [2], the activity at 2 µM was determined as 91.6% and the activity at 20 µM came out at 90.4%. The matching figures for `COc1ccc2c(c1)c(=O)[nH]c1c(C#N)c(-c3ccc(Cl)cc3Cl)nn12` [Example 65, 2-(2,4-Dichlorophenyl)-7-methoxy-5-oxo-4H-pyrazolo[1,5-a]quinazoline-3-carbonitrile]: 76.9% and -1%. As for `N#Cc1ccc2c(c1)c(=O)[nH]c1c(C#N)c(C3(c4ccc(Cl)cc4)CC3)nn12` [Example 66, 2-[1-(4-Chlorophenyl)cyclopropyl]-5-oxo-4H-pyrazolo[1,5-a]quinazoline-3,7-dicarbonitrile], in assay [2], the activity at 2 µM turned out to be 39.6% and the activity at 20 µM was -3.8%. Also, in assay [2] (Table 2, SAG 500 nM, 28-32 hr treatment, read-out: Shh-light IC50), the IC50 is 1500 nM. Turning to `COC(=O)c1c(-c2ccc(Cl)cc2Cl)nn2c(=O)c3ccccc3[nH]c12` [Example 67, Methyl 2-(2,4-dichlorophenyl)-9-oxo-4H-pyrazolo[5,1-b]quinazoline-3-carboxylate], the activity at 20 µM in assay [2] is 80.3%. For `CC(C)OC(=O)c1c(-c2ccc(Cl)cc2Cl)nn2c(=O)c3ccccc3[nH]c12` [Example 68, Isopropyl 2-(2,4-dichlorophenyl)-9-oxo-4H-pyrazolo[5,1-b]quinazoline-3-carboxylate], in assay [2], the activity at 2 µM stood at 90.5% and the activity at 20 µM was found to be 110%.

As to `O=c1c2ccc(Cl)cc2[nH]c2cc(-c3ccc(Cl)cc3Cl)nn12` [Example 69, 6-Chloro-2-(2,4-dichlorophenyl)-4H-pyrazolo[5,1-b]quinazolin-9-one], in assay [2], the activity at 2 µM stood at 75% and the activity at 20 µM came to 65.4%. The matching figures for `O=c1c2ccccc2[nH]c2cc(-c3ccc(Cl)cc3Cl)nn12` [Example 70, 2-(2,4-Dichlorophenyl)-4H-pyrazolo[5,1-b]quinazolin-9-one]: 109% and 113%. The matching figures for `O=c1c2ccccc2[nH]c2cc(-c3ccc(C(F)(F)F)cc3)nn12` [Example 71, 2-[4-(Trifluoromethyl)phenyl]-4H-pyrazolo[5,1-b]quinazolin-9-one]: 108% and 115%. The matching figures for `CN(C)Cc1c(-c2ccc(Cl)cc2Cl)nn2c(=O)c3ccccc3[nH]c12` [Example 72, 2-(2,4-Dichlorophenyl)-3-[(dimethylamino)methyl]-4H-pyrazolo[5,1-b]quinazolin-9-one]: 122% and 20.1%. For the compound `O=c1c2ccccc2[nH]c2c(I)c(-c3ccc(Cl)cc3Cl)nn12` [Example 73, 2-(2,4-Dichlorophenyl)-3-iodo-4H-pyrazolo[5,1-b]quinazolin-9-one], in assay [2], the activity at 2 µM worked out at 99.1% and the activity at 20 µM was found to be 34.6%.
